Earlier results in patent publication US20090053319A1 (priority 2007, published 2009).

Conditions: pure capsaicinoid; background statement

Q: With COc1cc(CNC(=O)CCCC/C=C/C(C)C)ccc1O [Capsaicin] as the molecule, how does the “pungency (Scoville scale)” value read?
A: 15,000,000-16,000,000 Scoville units
